Data published in US20100093811A1 (priority 2007, published 2010).
pIC50: −log10 of the molar value. Counter-ions that a name gives are not always drawn. Like-named read-outs stand apart in the source and are kept apart here.

Key:
[1] = test system: acute HIV infection of T-lymphoid cells; assay: Assay for inhibition of HIV replication (spread assay); assay type: cell-based, HIV-1; settings: Human immunodeficiency virus 1, T-lymphoid; read-out: Spread - IC95
Protocol: • Assay for Inhibition of HIV Replication
Assays for the inhibition of acute HIV infection of T-lymphoid cells were conducted in accordance with Vacca, J. P. et al., Proc. Natl. Acad. Sci. USA 1994, 91: 4096.

wild-type HIV-1 protease = wild-type HIV-1 protease (Human immunodeficiency virus type 1 group M subtype B, UniProt P04585); assay: Assay for inhibition of microbial expressed HIV protease; assay type: biochemical
How it was run: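 E. coli-expressed protease (5 pM) preincubated with inhibitor 30 min at room temperature in 50 mM sodium acetate pH 5.5, 100 mM NaCl, 0.1% BSA. Substrate Val-Ser-Gln-Asn-(betanapthyl)Ala-Pro-Ile-Val at 440 micromolar, 1 h at 30° C; acid-quenched, product peak area by C18 HPLC gives inhibition.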

[2] = wild-type HIV-1 protease expressed in E. coli, peptide substrate, pH 5.5, read-out: Enzyme Inhibition - IC50

## CC[C@@H](CCC[C@@H](CO)N(CC(C)C)S(=O)(=O)c1ccc(CO)cc1)NC(=O)[C@@H](NC(=O)OC)C(c1ccc(F)cc1)c1ccc(F)cc1 [Example J20, N-{(1S,5S)-1-ethyl-6-hydroxy-5-[{[4-(hydroxymethyl)phenyl]sulfonyl}(isobutyl)amino]hexyl}-4-fluoro-β-(4-fluorophenyl)-Nα-(methoxycarbonyl)-L-phenylalaninamide]
[1]
  IC95: 50 nM
wild-type HIV-1 protease; [2]
  pIC50: 10.70

## CC[C@@H](CCC[C@@H](CO)N(CC(C)C)S(=O)(=O)c1ccc(CO)cc1)NC(=O)[C@H](Cc1ccccc1Cl)NC(=O)OC [Example J21, 2-chloro-N-{(1S,55)-1-ethyl-6-hydroxy-5-[{[4-(hydroxymethyl)phenyl]sulfonyl}(isobutyl)amino]hexyl}-Nα-(methoxycarbonyl)-L-phenylalaninamide]
[1]
  IC95: 49 nM
wild-type HIV-1 protease; [2]
  pIC50: 9.38

## COC(=O)N[C@H](C(=O)N[C@H](CCC[C@@H](CO)N(CC(C)C)S(=O)(=O)c1ccc(CO)cc1)C1CC1)C(c1ccccc1)c1ccccc1 [Example J22]
[1]
  IC95: 15 nM
wild-type HIV-1 protease; [2]
  pIC50: 10.49

## COC(=O)N[C@H](C(=O)N[C@H](CCC[C@@H](CO)N(CC(C)C)S(=O)(=O)c1ccc(CO)cc1)C1CC1)C(c1ccc(F)cc1)c1ccc(F)cc1 [Example J23, N-{(1R,5S)-1-cyclopropyl-6-hydroxy-5-[{[4-(hydroxymethyl)phenyl]sulfonyl}(isobutyl)amino]hexyl}-4-fluoro-β-(4-fluorophenyl)-Nα-(methoxycarbonyl)-L-phenylalaninamide]
[1]
  IC95: 60 nM
wild-type HIV-1 protease; [2]
  pIC50: 10.60

## CC[C@@H](CCC[C@@H](CO)N(CC(C)C)S(=O)(=O)c1ccc(CO)cc1)NC(=O)[C@@H](NC)C(c1ccccc1)c1ccccc1 [Example J24, N-{(1S,5S)-1-ethyl-6-hydroxy-5-[{[4-(hydroxymethyl)phenyl]sulfonyl}(isobutyl)amino]hexyl}-Nα-methyl-β-phenyl-L-phenylalaninamide hydrochloride]
[1]
  IC95: 16 nM
wild-type HIV-1 protease
  pIC50: 10.26

## CN[C@H](C(=O)N[C@H](CCC[C@@H](CO)N(CC(C)C)S(=O)(=O)c1ccc(CO)cc1)C1CC1)C(c1ccccc1)c1ccccc1 [Example J25, N-{(1R,55)-1-cyclopropyl-6-hydroxy-5-[{[4-(hydroxymethyl)phenyl]sulfonyl}(isobutyl)amino]hexyl}-Nα-methyl-β-phenyl-L-phenylalaninamide]
[1]
  IC95: 17 nM
wild-type HIV-1 protease; [2]
  pIC50: 10.10

## COC(=O)N[C@@H](Cc1ccccc1Cl)C(=O)N[C@H](CCC[C@@H](CO)N(CCC(C)C)S(=O)(=O)c1ccc(CO)cc1)C(C)C [Example J26, 2-chloro-N-{(1R,5S)-6-hydroxy-5-[{[4-(hydroxymethyl)phenyl]sulfonyl}(3-methylbutyl)amino]-1-isopropylhexyl}-Nα-(methoxycarbonyl)-L-phenylalaninamide]
[1]
  IC95: 110 nM
wild-type HIV-1 protease; [2]
  pIC50: 8.88

## CC[C@@H](CCC[C@@H](CO)N(CCC(C)C)S(=O)(=O)c1ccc(CO)cc1)NC(=O)[C@@H](NC)C(c1ccccc1)c1ccccc1 [Example J27, N-{(1S,5S)-1-ethyl-6-hydroxy-5-[{[4-(hydroxymethyl)phenyl]sulfonyl}(3-methylbutyl)amino]hexyl}-Nα-methyl-β-phenyl-L-phenylalaninamide]
[1]
  IC95: 6 nM
wild-type HIV-1 protease; [2]
  pIC50: 10.60

## CN[C@H](C(=O)N[C@H](CCC[C@@H](CO)N(CCC(C)C)S(=O)(=O)c1ccc(CO)cc1)C1CC1)C(c1ccccc1)c1ccccc1 [Example J28, N-{(1R,5S)-1-cyclopropyl-6-hydroxy-5-[{[4-(hydroxymethyl)phenyl]sulfonyl}(3-methylbutyl)amino]hexyl}-Nα-methyl-β-phenyl-L-phenylalaninamide]
[1]
  IC95: 8 nM
wild-type HIV-1 protease; [2]
  pIC50: 11.00

## CN[C@H](C(=O)N[C@H](CCC[C@@H](CO)N(CCC(C)C)S(=O)(=O)c1ccc(CO)cc1)C(C)C)C(c1ccccc1)c1ccccc1 [Example J29, N-{(1R,5S)-6-hydroxy-5-[{[4-(hydroxymethyl)phenyl]sulfonyl}(3-methylbutyl)amino]-1-isopropylhexyl}-Nα-methyl-β-phenyl-L-phenylalaninamide]
[1]
  IC95: 16 nM
wild-type HIV-1 protease; [2]
  pIC50: 10.41

## COC(=O)N[C@H](C(=O)N[C@H](CCC[C@@H](CO)N(CC(C)C)S(=O)(=O)c1ccc(CO)cc1)C(F)(F)F)C(c1ccccc1)c1ccccc1 [Example J30, N-[(1R,5S)-6-hydroxy-5-[{[4-(hydroxymethyl)phenyl]sulfonyl}(isobutyl)amino]-1-(trifluoromethyl)hexyl]-Nα-(methoxycarbonyl)-β-phenyl-L-phenylalaninamide]
[1]
  IC95: 21 nM
wild-type HIV-1 protease; [2]
  pIC50: 11.00

## CC[C@@H](CCC[C@@H](CO)N(CCC(C)C)S(=O)(=O)c1ccc(CO)cc1)NC(=O)[C@@H](N)C(c1ccccc1)c1ccccc1 [Example J31, N-{(1S,5S)-1-ethyl-6-hydroxy-5-[{[4-(hydroxymethyl)phenyl]sulfonyl}(3-methylbutyl)amino]hexyl}-β-phenyl-L-phenylalaninamide hydrochloride]
[1]
  IC95: 23 nM
wild-type HIV-1 protease
  pIC50: 11.00

## CC[C@@H](CCC[C@@H](CO)N(CC(C)C)S(=O)(=O)c1ccc(CO)cc1)NC(=O)[C@@H](N)C(c1ccccc1)c1ccccc1 [Example J32, N-{(1S,5S)-1-ethyl-6-hydroxy-5-[{[4-(hydroxymethyl)phenyl]sulfonyl}(isobutyl)amino]hexyl}-β-phenyl-L-phenylalaninamide hydrochloride]
[1]
  IC95: 25 nM
wild-type HIV-1 protease
  pIC50: 11.00

## CCCN([C@H](CO)CCC[C@H](CC)NC(=O)[C@@H](NC(=O)OC)C(c1ccccc1)c1ccccc1)S(=O)(=O)c1ccc(CO)cc1 [Example J34, N-{(1S,5S)-1-ethyl-6-hydroxy-5-[{[4-(hydroxymethyl)phenyl]sulfonyl}(propyl)amino]hexyl}-Nα-(methoxycarbonyl)-β-phenyl-L-phenylalaninamide]
[1]
  IC95: 20 nM
wild-type HIV-1 protease; [2]
  pIC50: 10.39

## CC[C@@H](CCC[C@@H](CO)N(C(C)C)S(=O)(=O)c1ccc(CO)cc1)NC(=O)[C@@H](NC)C(c1ccccc1)c1ccccc1 [Example J35, N-{(1S,5S)-1-ethyl-6-hydroxy-5-[{[4-(hydroxymethyl)phenyl]sulfonyl}(isopropyl)amino]hexyl}-Nα-methyl-β-phenyl-L-phenylalaninamide hydrochloride]
[1]
  IC95: 25 nM
wild-type HIV-1 protease
  pIC50: 9.24

## CC[C@@H](CCC[C@@H](CO)N(C(C)C)S(=O)(=O)c1ccc(CO)cc1)NC(=O)[C@@H](N)C(c1ccccc1)c1ccccc1 [Example J36, N-{(1S,5S)-1-ethyl-6-hydroxy-5-[{[4-(hydroxymethyl)phenyl]sulfonyl}(isopropyl)amino]hexyl}-β-phenyl-L-phenylalaninamide]
[1]
  IC95: 27 nM
wild-type HIV-1 protease; [2]
  pIC50: 10.01

## COC(=O)N[C@@H](Cc1ccccc1Br)C(=O)N[C@H](CCC[C@@H](CO)N(C(C)C)S(=O)(=O)c1ccc(CO)cc1)C1CC1 [Example J37, 2-bromo-N-{(1R,5S)-1-cyclopropyl-6-hydroxy-5-[{[4-(hydroxymethyl)phenyl]sulfonyl}(isopropyl)amino]hexyl}-Nβ-(methoxycarbonyl)-L-phenylalaninamide]
[1]
  IC95: 37 nM
wild-type HIV-1 protease; [2]
  pIC50: 9.23

## CCCN([C@H](CO)CCC[C@H](CC)NC(=O)[C@@H](NC)C(c1ccccc1)c1ccccc1)S(=O)(=O)c1ccc(CO)cc1 [Example J38, N-{(1S,5S)-1-ethyl-6-hydroxy-5-[{[4-(hydroxymethyl)phenyl]sulfonyl}(propyl)amino]hexyl}-Nα-methyl-β-phenyl-L-phenylalaninamide]
[1]
  IC95: 34 nM
wild-type HIV-1 protease; [2]
  pIC50: 10.01

## CCCN([C@H](CO)CCC[C@H](CC)NC(=O)[C@@H](N)C(c1ccccc1)c1ccccc1)S(=O)(=O)c1ccc(CO)cc1 [Example J39, N-{(1S,5S)-1-ethyl-6-hydroxy-5-[{[4-(hydroxymethyl)phenyl]sulfonyl}(propyl)amino]hexyl}-β-phenyl-L-phenylalaninamide]
[1]
  IC95: 39 nM
wild-type HIV-1 protease; [2]
  pIC50: 10.80

## COC(=O)N[C@H](C(=O)N[C@H](CCC[C@@H](CO)N(C(C)C)S(=O)(=O)c1ccc(CO)cc1)C(F)(F)F)C(c1ccccc1)c1ccccc1 [Example J40, N-[(1R,5S)-6-hydroxy-5-[{[4-(hydroxymethyl)phenyl]sulfonyl}(isopropyl)amino]-1-(trifluoromethyl)hexyl]-Nα-(methoxycarbonyl)-β-phenyl-L-phenylalaninamide]
[1]
  IC95: 34 nM
wild-type HIV-1 protease; [2]
  pIC50: 10.82

## CCCN([C@H](CO)CCC[C@H](CC)NC(=O)[C@H](Cc1cccc2ccccc12)NC(=O)OC)S(=O)(=O)c1ccc(CO)cc1 [Example J41, methyl [(1S)-2-({(1S,5S)-1-ethyl-6-hydroxy-5-[{[4-(hydroxymethyl)phenyl]sulfonyl}(propyl)amino]hexyl}amino)-1-(1-naphthylmethyl)-2-oxoethyl]carbamate]
[1]
  IC95: 54 nM
wild-type HIV-1 protease; [2]
  pIC50: 9.25

## CCCN([C@H](CO)CCC[C@@H](NC(=O)[C@H](Cc1ccccc1Cl)NC(=O)OC)C(F)(F)F)S(=O)(=O)c1ccc(CO)cc1 [Example J43, 2-chloro-N-[(1R,5S)-6-hydroxy-5-[{[4-(hydroxymethyl)phenyl]sulfonyl}(propyl)amino]-1-(trifluoromethyl)hexyl]-Nα-(methoxycarbonyl)-L-phenylalaninamide]
[1]
  IC95: 116 nM
wild-type HIV-1 protease; [2]
  pIC50: 9.90

## CC[C@@H](CCC[C@@H](CO)N(CCC(C)C)S(=O)(=O)c1ccc(CO)cc1)NC(=O)[C@@H](NC(=O)OC)C(c1ccc(Cl)cc1)c1ccc(Cl)cc1 [Example J44, 4-chloro-β-(4-chlorophenyl)-N-{(1S,5S)-1-ethyl-6-hydroxy-5-[{[4-(hydroxymethyl)phenyl]sulfonyl}(3-methylbutyl)amino]hexyl}-Nα-(metboxycarbonyl)-L-phenylalaninamide]
[1]
  IC95: 126 nM
wild-type HIV-1 protease; [2]
  pIC50: 10.09
